EP4671239A1, “ARYL SUBSTITUENT-CONTAINING DEGRADATION AGENT FOR CDK12/13, PREPARATION METHOD THEREFOR, AND PHARMACEUTICAL COMPOSITION AND USE THEREOF” (Shanghai Institute of Organic Chemistry, Chinese Academy of …, priority 2023, dated 2024)

What was measured:
[1] = Pharmacokinetics and bioavailability test in rats (Example 60); format: in vivo; settings: SD rats; for F: bioavailability calculated from AUC; for oral pharmacokinetic properties: summary in words of Tables 2-6; for Cmax / Tmax / half-life / clearance: rat
Procedure: Pharmacokinetics and bioavailability tests in rats. SD rats were given a single oral (10 mg/kg), intravenous (2.5 mg/kg) and intraperitoneal (10 mg/kg) dose, followed by animal blood sample collection at appropriate time points. Heparin was added for anticoagulation, and the samples were centrifuged at 8000 rpm for 6 min. The supernatant was collected and stored at -20°C for HPLC-MS analysis. The blood samples underwent protein precipitation with acetonitrile at 12 000 rpm * 10 min, and the supernatant was used for HPCL-MS analysis. The data underwent parameter fitting with DAS2.0, to obtain compartmental model and non-compartmental model parameters, respectively. The oral bioavailability of the compounds was calculated based on the area under the plasma concentration-time curve (AUC) data. […] Table 2. Pharmacokinetic experimental results of compounds YJZ9069 and YJZ1102

[2] = system: CDK12 and CDK13 proteins; assay: Degradation activity on CDK12/13 in 22RV1 cells (Western Blot); format: cell-based; settings: 22RV1 cells; for degradation of CDK12 and CDK13 protein levels in cells: 500 nM, 6 hours, WB (FIG. 4); for degradation of CDK12 and CDK13 proteins: 100 nM, 6 h (FIG. 5); for dose dependence of degradation of CDK12 and CDK13 proteins: different concentrations, 6 h (FIG. 4B, FIG. 5)
Procedure: Experimental methods: The cell line, 22RV1 cell line was purchased from the American Type Culture Collection (ATCC). Conventional Western Blot was used for detection as follows: 22RV1 cells were seeded in a certain number in a 12-well plate, and cultured overnight in an incubator in an adherent manner. […] The cells were lysed with a lysis buffer, and samples were collected. Then, an appropriate amount of the samples was taken for SDS-PAGE electrophoresis. After electrophoresis, the proteins were transferred to nitrocellulose membranes using a semi-dry electro-transfer system. The nitrocellulose membrane was placed in a blocking solution (5% skim milk powder diluted in TBS containing 0.1% Tween 20) and blocked at room temperature for 2 h. The membranes were then placed in a primary antibody solution (1: 1000 diluted in TBS containing 0.1% Tween 20), respectively, and incubated at 4°C overnight. The cells were washed three times with TBS containing 0.1% Tween 20, each time for 15 min. The membrane was placed in a secondary antibody solution (horseradish peroxidase-labeled goat anti-rabbit IgG, diluted at 1:1000 in TBS containing 0.1% Tween 20) and reacted at room temperature for 1 h. After washing the membrane three times as above, the membrane was developed with ECL plus reagent and photographed using Amersham Imager 600 system.

[3] = system: prostate cancer VCap cells; assay: Proliferation-inhibiting activity on VCap cells (CellTiter-Glo); format: cell-based; settings: Homo sapiens; VCap cell line, CellTiter-Glo (FIG. 6)
Procedure: The cell proliferation-inhibiting activity of the compounds was determined using the CellTiter-Glo Luminescent Cell Viability Assay (Promega, Madison, WI). The cells were seeded in a 96-well plate in their respective culture media and incubated at 37°C in a 5% CO2 incubator. After overnight incubation, serial dilutions of the compounds were prepared and added to the 96-well plate. A volume of CellTiter-Glo reagent equal to the volume of the cell culture medium present in each well was added (e.g., 100 microliters of the reagent was added to 100 microliters of the culture medium for the cells in the 96-well plate). The contents were mixed on an orbital shaker for 2 min to induce cell lysis. The 96-well plate was incubated at room temperature for 10 minutes to stabilize a luminescent signal. Luminescence was recorded: the luminescence signal of each well was acquired using an Infinite M1000 Pro plate reader (Tecan, Zürich, Switzerland), and the data were analyzed using GraphPad Prism software (GraphPad Software Inc, La Jolla, CA).

[4] = system: CDK12 and CDK13 proteins; assay: Degradation activity on CDK12/13 in MDA-MB-231 cells (Western Blot); format: cell-based; settings: 0.1µM or 0.3µM, 15 h, WB (FIG. 1)
Procedure: Experimental methods: The cell line MDA-MB-231 was purchased from the American Type Culture Collection (ATCC). Conventional Western Blot was used for detection, as follows: MDA-MB-231 cells were seeded at a density of 2 x 10^5/mL in a 12-well plate, with 1 mL per well, and cultured overnight in an incubator in an adherent manner. Then, a certain concentration of compounds was added to act for 15 h. The cells were lysed with a lysis buffer, and protein samples were collected. An appropriate amount of the sample was taken for SDS-PAGE electrophoresis. After electrophoresis, the protein was transferred to a polyvinylidene fluoride (PVDF) membrane using a wet electro-transfer system. The PVDF membrane after electro-transfer was cut into several required strips, which were then placed in a blocking solution (5% skim milk powder diluted in TBS containing 0.1% Tween 20) and blocked at room temperature for 1.5 h. A primary antibody solution was prepared by diluting a primary antibody against the corresponding target protein in TBS containing 0.1% Tween 20 according to the dilution requirements of different antibodies, such as 1:1000 (CST), 1:3000 (Proteintech, Bethyl), and 1:200 (Santacruz). The blocked membrane was placed in the corresponding primary antibody solution and incubated at 4°C for 12-14 h. Then, the cells were washed three times with TBS containing 0.1% Tween 20, each time for 5 min. After washing, the membrane was placed in a secondary antibody solution (horseradish peroxidase-labeled goat anti-rabbit IgG, diluted at 1:2000 in TBS containing 0.1% Tween 20) and reacted at room temperature for 2 h. After washing the membrane three times as above, the membrane was developed with StarSignal plus reagent (GenStar®) and Omni-ECL reagent (Yazyme®), and photographed with Amersham Imager 800 system.

[5] = system: triple negative breast cancer cells MDA-MB-231; assay: Proliferation-inhibiting activity on MDA-MB-231 cells (Cell Counting Kit-8); format: cell-based; settings: Homo sapiens, 120 h; MDA-MB-231 cell line, 5 days, cck-8 (FIG. 3)
Procedure: The cell proliferation-inhibiting activity of the compounds was determined using Cell Counting Kit-8 Cell Viability Assay (Selleck.cn). The cells were seeded into a 384-well plate (CORNING® PS 3701) containing the corresponding culture medium and incubated in an incubator at 37°C with 5% CO2. After overnight incubation, a high-concentration stock solution of each compound to be tested was prepared; the compound was added to the 384-well plate according to a concentration gradient using an Echo® 650 Liquid Handler (LABCYTE®). After administration, the cell plate was placed in an incubator at 37°C with 5% CO2 and incubated for 5 days. Then, 5 µL of cck-8 reagent was added to each well of the 384-well plate using MULTIDROP® (Thermo Scientific™), and the plate was returned to the incubator for incubation for 1.5-2 h. After incubation, the plate was removed and centrifuged to remove bubbles. The absorbance of each well at 450 nm and 650 nm was obtained using EnVision® (PerkinElmer®). GraphPad Prism software (GraphPad Software Inc.) was used to process and analyze the data.

[6] = Sprague-Dawley, plasma, IV 2.5 mg/kg
[7] = Sprague-Dawley, plasma, PO 10 mg/kg

Compound	F ([1]; PO 10 mg/kg)	oral pharmacokinetic properties [1]	degradation of CDK12 and CDK13 protein levels in cells [2]	IC50 [3]	Cmax [1, 6]	Tmax [1, 6]	clearance [1, 6]	half-life [1, 6]	Cmax [1, 7]	Tmax [1, 7]	half-life [1, 7]	degradation of CDK12 and CDK13 proteins [2]	dose dependence of degradation of CDK12 and CDK13 proteins [2]	degradation of CDK12 and CDK13 protein levels in cells [4]	IC50 [5]	further results
O=C1CCC(N2C(=O)c3ccc(N4CC(CN5CCN(c6ccc(N(C(=O)NCc7ccccc7)[C@H]7CC[C@H](Nc8ncc9ccccc9n8)CC7)cc6)CC5)C4)cc3C2=O)C(=O)N1 (some centres unmarked) [YJZ1102]	17.28%	excellent	effectively degrade	16.3 nM												F ([1]; IP 10 mg/kg): 94.15%; Cmax ([1]; in vivo, IP 10 mg/kg): 662 ng/mL; Tmax ([1]; in vivo, IP 10 mg/kg): 6.67 h; half-life ([1]; in vivo, IP 10 mg/kg): 26.4 h; Cmax ([1]; in vivo, IV 2.5 mg/kg): 2200 ng/mL; Tmax ([1]; in vivo, IV 2.5 mg/kg): 0.08 h; clearance ([1]; in vivo, IV 2.5 mg/kg): 3.32 mL/min/kg; half-life ([1]; in vivo, IV 2.5 mg/kg): 10.7 h; Cmax ([1]; in vivo, PO 10 mg/kg): 148 ng/mL; Tmax ([1]; in vivo, PO 10 mg/kg): 6 h; half-life ([1]; in vivo, PO 10 mg/kg): 10.4 h
O=C1CCC(N2C(=O)c3ccc(N4CCC(CN5CCN(c6ccc(N(C(=O)NCc7ccccc7)[C@H]7CC[C@H](Nc8ncc9ccccc9n8)CC7)cc6)CC5)CC4)cc3C2=O)C(=O)N1 (some centres unmarked) [YJZ1097, 3-benzyl-1-(4-(4-((1-(2-(2,6-dioxopiperidin-3-yl)-1,3-dioxoisoindole-5-yl)piperidin-4-yl)methyl)piperazin-1-yl)phenyl)-1-((1r,4r)-4-(quinazolin-2-ylamino)cyclohexyl)urea]	23.89%	excellent	effectively degrade	3.93 nM	2490 ng/mL	0.08 h	3.12 mL/min/kg	13.8 h	593 ng/mL	6.7 h	15.2 h	almost completely degrade	dose-dependent manner			
O=C1CCC(N2C(=O)c3ccc(N4CCC(N5CCN(c6ccc(N(C(=O)NCc7ccccc7)[C@H]7CC[C@H](Nc8ncc9ccccc9n8)CC7)cn6)CC5)CC4)cc3C2=O)C(=O)N1 (some centres unmarked) [YJZ1205]	15.87%	excellent	effectively degrade	13.5 nM	3620 ng/mL	0.08 h	3.93 mL/min/kg	3.81 h	581 ng/mL	4.7 h	4.2 h	almost completely degrade	dose-dependent manner			
N#Cc1ccc(N[C@H]2CC[C@H](N(C(=O)NCc3ccccc3)c3ccc(N4CCN(C(=O)C5CCN(c6ccc7c(c6)C(=O)N(C6CCC(=O)NC6=O)C7=O)CC5)CC4)cc3)CC2)nc1 (some centres unmarked) [ZLC5-31]														effectively degrade	389 nM	
O=C1CCC(N2C(=O)c3ccc(N4CCC(N5CCN(c6ccc(N(C(=O)NCc7ccccc7F)[C@H]7CC[C@H](Nc8ncc9ccccc9n8)CC7)cc6)CC5)CC4)cc3C2=O)C(=O)N1 (some centres unmarked) [YJZ1203]	16.95%	excellent	effectively degrade	18.8 nM	3060 ng/mL	0.08 h	5.22 mL/min/kg	6.19 h	382 ng/mL	6.7 h	6.4 h	almost completely degrade	dose-dependent manner			
N#Cc1ccc(N[C@H]2CC[C@H](N(C(=O)NCc3ccccc3)c3ccc(N4CCN(C[C@H]5CCN(c6ccc7c(c6)C(=O)N(C6CCC(=O)NC6=O)C7=O)C5)CC4)cc3)CC2)nc1 (some centres unmarked) [ZLC6-1]														effectively degrade	289 nM	
O=C1CCC(N2C(=O)c3cc(F)c(N4CCC(N5CCN(c6ccc(N(C(=O)NCc7ccccc7)[C@H]7CC[C@H](Nc8ncc9ccccc9n8)CC7)cc6)CC5)CC4)cc3C2=O)C(=O)N1 (some centres unmarked) [YJZ1201]	39.60%	excellent	effectively degrade	64.4 nM	2510 ng/mL	0.08 h	3.27 mL/min/kg	10.8 h	1040 ng/mL	6.67 h	12.4 h	almost completely degrade	dose-dependent manner			
O=C1CCC(N2C(=O)c3ccc(N4CCC(N5CCN(c6ccc(N(C(=O)NCc7ccccc7)[C@H]7CC[C@H](Nc8ncc9ccccc9n8)CC7)cc6F)CC5)CC4)cc3C2=O)C(=O)N1 (some centres unmarked) [YJZ1204, 3-benzyl-1-(4-(4-(1-(2-(2,6-dioxopiperidin-3-yl)-1,3-dioxoisoindole-5-yl)piperidin-4-yl)-piperazin-1-yl)-3-fluorophenyl)-1-((1r,4r)-4-(quinazolin-2-ylamino)cyclohexyl)urea]	30.13%	excellent	effectively degrade	23.3 nM	2290 ng/mL	0.08 h	6.01 mL/min/kg	8.54 h	457 ng/mL	7.33 h	10.8 h	almost completely degrade	dose-dependent manner			
N#Cc1ccc(N[C@H]2CC[C@H](N(C(=O)NCc3ccccc3)c3ccc(N4CCN(CC5CN(c6ccc7c(c6)C(=O)N(C6CCC(=O)NC6=O)C7=O)C5)CC4)cc3)CC2)nc1 (some centres unmarked) [ZLC5-6]														effectively degrade	498 nM	
